Source: patent US20240368118A1, “CEREBLON BINDING COMPOUNDS, COMPOSITIONS THEREOF, AND METHODS OF TREATMENT THEREWITH” (CELGENE CORPORATION, priority 2021, published 2024)
Counter-ions that a name gives are not always drawn.

Target: T1, AR (Homo sapiens, UniProt P10275)
T1 construct: endogenous in cells; host or cells: VCaP cells
T1 sequence (P10275 1-920): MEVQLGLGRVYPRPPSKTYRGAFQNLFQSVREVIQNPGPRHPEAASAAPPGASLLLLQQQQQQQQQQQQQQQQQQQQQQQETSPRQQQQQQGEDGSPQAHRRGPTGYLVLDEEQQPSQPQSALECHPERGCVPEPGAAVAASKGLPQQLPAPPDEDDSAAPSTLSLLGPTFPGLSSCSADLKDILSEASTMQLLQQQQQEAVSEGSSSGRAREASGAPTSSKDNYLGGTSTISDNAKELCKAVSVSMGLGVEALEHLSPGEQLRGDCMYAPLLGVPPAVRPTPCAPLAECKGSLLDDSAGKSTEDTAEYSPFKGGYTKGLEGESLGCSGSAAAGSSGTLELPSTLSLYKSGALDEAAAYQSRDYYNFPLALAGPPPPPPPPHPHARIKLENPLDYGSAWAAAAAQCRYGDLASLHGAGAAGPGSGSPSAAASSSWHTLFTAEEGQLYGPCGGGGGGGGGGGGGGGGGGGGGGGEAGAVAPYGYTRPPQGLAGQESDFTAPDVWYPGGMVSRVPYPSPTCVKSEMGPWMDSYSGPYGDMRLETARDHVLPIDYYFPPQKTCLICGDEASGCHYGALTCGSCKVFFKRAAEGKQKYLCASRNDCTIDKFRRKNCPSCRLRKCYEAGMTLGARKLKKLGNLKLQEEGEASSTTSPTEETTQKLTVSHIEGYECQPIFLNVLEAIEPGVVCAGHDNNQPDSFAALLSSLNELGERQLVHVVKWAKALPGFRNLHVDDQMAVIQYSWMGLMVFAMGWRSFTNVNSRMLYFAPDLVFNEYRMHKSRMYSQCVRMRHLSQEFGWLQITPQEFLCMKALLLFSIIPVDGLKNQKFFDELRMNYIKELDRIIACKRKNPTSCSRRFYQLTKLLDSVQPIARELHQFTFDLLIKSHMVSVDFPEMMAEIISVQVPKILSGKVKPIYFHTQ
Experiment: VCAP AR Degradation Assay
Type: cell-based
Settings: VCaP cells, 24 h; for DC50: AR ELISA, concentration when AR level = 50% of DMSO control; for Ymin: lowest AR level normalized to DMSO control
Protocol: VCAP AR Degradation Assay. Test compounds were pre-dispensed into a Corning CellBind 96-well clear bottom plate (Cat #3300) using an acoustic dispenser to make a 10-point concentration series at 1:3 dilution for each compound. The final top concentration of each compound was 5 μM. DMSO at a final concentration of 0.1% was used as a control. VCaP cells cultured in DMEM with 8% fetal bovine serum (FBS) were seeded at 50K cells per well in a 200 μL volume into the compound plate and incubated at 37° C. in a C02 incubator for 24 h. The medium was carefully removed from the cells and the plate was placed on ice. One hundred μL of ice-cold 1× cell lysis buffer from Cell Signaling Technologies (Cat #9803) was added to each well of the cells and the plate was incubated at 4° C. on a shaker for 1 h. Fifteen μL of cell lysate was used for AR ELISA detection using a PathScan Total Sandwich AR ELISA kit (Cell Signaling Technology, Cat #12580). AR levels in compound-treated wells were normalized to that of DMSO control and expressed as percent of control (PoC) (y). A Four Parameter Logistic Model (Sigmoidal Dose-Response Model) was used to determine the compound's DC50, and EC50, using the following equation: […]
The lowest measured AR level normalized to DMSO control in response to compound treatment, termed Y value, was used to characterize the compound-mediated AR degradation efficiency.

Structure (SMILES) | DC50 | Ymin (class symbols) | Ymin (given as numbers)
C[C@@H]1CN(CCCO[C@H]2CC[C@H](N3C(=S)N(c4ccc(C#N)c(C(F)(F)F)c4)C(=O)C3(C)C)CC2)C[C@H](C)N1CC(=O)Nc1cccc(N2CCC(=O)NC2=O)c1 [Cmpd 19, 2-((2R,6S)-4-(3-((trans-4-(3-(4-Cyano-3-(trifluoromethyl)phenyl)-5,5-dimethyl-4-oxo-2-thioxoimidazolidin-1-yl)cyclohexyl)oxy)propyl)-2,6-dimethylpiperazin-1-yl)-N-(3-(2,4-dioxotetrahydropyrimidin-1(2H)-yl)phenyl)acetamide hydrochloride] | ≤ 5 nM | ** (20%<Y≤30%) | 
C[C@@H]1CN(CCCO[C@H]2CC[C@H](N3C(=S)N(c4cnc(C#N)c(C(F)(F)F)c4)C(=O)C3(C)C)CC2)C[C@H](C)N1CC(=O)Nc1ccc(C2CCC(=O)NC2=O)cc1 (stereo partly drawn) [Cmpd 13, 2-((2R,6S)-4-(3-((trans-4-(3-(6-Cyano-5-(trifluoromethyl)pyridin-3-yl)-5,5-dimethyl-4-oxo-2-thioxoimidazolidin-1-yl)cyclohexyl)oxy)propyl)-2,6-dimethylpiperazin-1-yl)-N-(4-(2,6-dioxopiperidin-3-yl)phenyl)acetamide hydrochloride] | ≤ 5 nM | ** (20%<Y≤30%) | 
C[C@@H]1C[C@H](CCO[C@H]2CC[C@H](N3C(=S)N(c4ccc(C#N)c(C(F)(F)F)c4)C(=O)C3(C)C)CC2)C[C@H](C)N1CC(=O)Nc1ccc(C2CCC(=O)NC2=O)cc1 (stereo partly drawn) [Cmpd 22, 2-((2R,4r,6S)-4-(2-((trans-4-(3-(4-Cyano-3-(trifluoromethyl)phenyl)-5,5-dimethyl-4-oxo-2-thioxoimidazolidin-1-yl)cyclohexyl)oxy)ethyl)-2,6-dimethylpiperidin-1-yl)-N-(4-(2,6-dioxopiperidin-3-yl)phenyl)acetamide hydrochloride] | ≤ 5 nM | * (0<Y≤20%) | 
C[C@@H]1CN(CCCO[C@H]2CC[C@H](N3C(=S)N(c4ccc(C#N)c(C(F)(F)F)c4)C(=O)C3(C)C)CC2)C[C@H](C)N1CC(=O)Nc1cccc(C2CCC(=O)NC2=O)c1 (stereo partly drawn) [Cmpd 20, 2-((2R,6S)-4-(3-((trans-4-(3-(4-Cyano-3-(trifluoromethyl)phenyl)-5,5-dimethyl-4-oxo-2-thioxoimidazolidin-1-yl)cyclohexyl)oxy)propyl)-2,6-dimethylpiperazin-1-yl)-N-(3-(2,6-dioxopiperidin-3-yl)phenyl)acetamide hydrochloride] | ≤ 5 nM | ** (20%<Y≤30%) | 
C[C@@H]1CN(CCO[C@H]2CC[C@H](N3C(=S)N(c4ccc(C#N)c(C(F)(F)F)c4)C(=O)C3(C)C)CC2)C[C@H](C)N1CC(=O)Nc1ccc(C2CCC(=O)NC2=O)cc1 (stereo partly drawn) [Cmpd 2, 2-((2S,6R)-4-(2-((trans-4-(3-(4-Cyano-3-(trifluoromethyl)phenyl)-5,5-dimethyl-4-oxo-2-thioxoimidazolidin-1-yl)cyclohexyl)oxy)ethyl)-2,6-dimethylpiperazin-1-yl)-N-(4-(2,6-dioxopiperidin-3-yl)phenyl)acetamide hydrochloride] | 5 to 15 nM | *** (30%<Y<80%) | 
C[C@@H]1CN(CCCC[C@H]2CC[C@H](N3C(=S)N(c4ccc(C#N)c(C(F)(F)F)c4)C(=O)C3(C)C)CC2)C[C@H](C)N1CC(=O)Nc1cccc(C2CCC(=O)NC2=O)c1 (stereo partly drawn) [Cmpd 24, 2-((2R,6S)-4-(4-((trans)-4-(3-(4-Cyano-3-(trifluoromethyl)phenyl)-5,5-dimethyl-4-oxo-2-thioxoimidazolidin-1-yl)cyclohexyl)butyl)-2,6-dimethylpiperazin-1-yl)-N-(3-(2,6-dioxopiperidin-3-yl)phenyl)acetamide] | ≤ 5 nM |  | 15 % of DMSO control
C[C@@H]1C[C@H](OCC[C@H]2CC[C@H](N3C(=S)N(c4cnc(C#N)c(C(F)(F)F)c4)C(=O)C3(C)C)CC2)C[C@H](C)N1CC(=O)Nc1ccc(C2CCC(=O)NC2=O)cc1 (stereo partly drawn) [Cmpd 39, 2-((2R,4r,6S)-4-(2-((trans)-4-(3-(6-Cyano-5-(trifluoromethyl)pyridin-3-yl)-5,5-dimethyl-4-oxo-2-thioxoimidazolidin-1-yl)cyclohexyl)ethoxy)-2,6-dimethylpiperidin-1-yl)-N-(4-(2,6-dioxopiperidin-3-yl)phenyl)acetamide] | ≤ 5 nM |  | 14 % of DMSO control
CC1(C)C(=O)N(c2ccc(C#N)c(C(F)(F)F)c2)C(=S)N1[C@H]1CC[C@H](OCCCN2CCN(CC(=O)Nc3ccc(C4CCC(=O)NC4=O)cc3)[C@@H](C(F)(F)F)C2)CC1 (stereo partly drawn) [Cmpd 35, 2-((R)-4-(3-(((trans)-4-(3-(4-Cyano-3-(trifluoromethyl)phenyl)-5,5-dimethyl-4-oxo-2-thioxoimidazolidin-1-yl)cyclohexyl)oxy)propyl)-2-(trifluoromethyl)piperazin-1-yl)-N-(4-(2,6-dioxopiperidin-3-yl)phenyl)acetamide] | ≤ 5 nM |  | 21 % of DMSO control
C[C@@H]1C[C@H](OCCC[C@H]2CC[C@H](N3C(=S)N(c4cnc(C#N)c(C(F)(F)F)c4)C(=O)C3(C)C)CC2)C[C@H](C)N1CC(=O)Nc1ccc(C2CCC(=O)NC2=O)cc1 (stereo partly drawn) [Cmpd 38, 2-((2R,4r,6S)-4-(3-((trans)-4-(3-(6-Cyano-5-(trifluoromethyl)pyridin-3-yl)-5,5-dimethyl-4-oxo-2-thioxoimidazolidin-1-yl)cyclohexyl)propoxy)-2,6-dimethylpiperidin-1-yl)-N-(4-(2,6-dioxopiperidin-3-yl)phenyl)acetamide] | 5 to 15 nM |  | 14 % of DMSO control
C[C@@H]1CN(CCO[C@H]2CC[C@H](N3C(=S)N(c4ccc(C#N)c(C(F)(F)F)c4)C(=O)C3(C)C)CC2)C[C@H](C)N1CC(=O)Nc1ccc(N2CCC(=O)NC2=O)cc1 [Cmpd 1, 2-((2S,6R)-4-(2-((trans-4-(3-(4-Cyano-3-(trifluoromethyl)phenyl)-5,5-dimethyl-4-oxo-2-thioxoimidazolidin-1-yl)cyclohexyl)oxy)ethyl)-2,6-dimethylpiperazin-1-yl)-N-(4-(2,4-dioxotetrahydropyrimidin-1(2H)-yl)phenyl)acetamide hydrochloride] | 100 to 10000 nM | *** (30%<Y<80%) | 
CC[C@@]1(c2ccc(NC(=O)CN3[C@H](C)CN(CCO[C@H]4CC[C@H](N5C(=S)N(c6ccc(C#N)c(C(F)(F)F)c6)C(=O)C5(C)C)CC4)C[C@@H]3C)cc2)CCC(=O)NC1=O [Cmpd 8, 2-((2S,6R)-4-(2-((trans-4-(3-(4-Cyano-3-(trifluoromethyl)phenyl)-5,5-dimethyl-4-oxo-2-thioxoimidazolidin-1-yl)cyclohexyl)oxy)ethyl)-2,6-dimethylpiperazin-1-yl)-N-(4-((S)-3-ethyl-2,6-dioxopiperidin-3-yl)phenyl)acetamide hydrochloride] | 100 to 10000 nM | *** (30%<Y<80%) | 
CC1(C)C(=O)N(c2ccc(C#N)c(C(F)(F)F)c2)C(=S)N1[C@H]1CC[C@H](OCCN2CCN(CC(=O)Nc3ccc(C4CCC(=O)NC4=O)cc3)[C@@H](C(F)(F)F)C2)CC1 (stereo partly drawn) [Cmpd 23, 2-((R)-4-(2-((trans-4-(3-(4-Cyano-3-(trifluoromethyl)phenyl)-5,5-dimethyl-4-oxo-2-thioxoimidazolidin-1-yl)cyclohexyl)oxy)ethyl)-2-(trifluoromethyl)piperazin-1-yl)-N-(4-(2,6-dioxopiperidin-3-yl)phenyl)acetamide hydrochloride] | 5 to 15 nM | * (0<Y≤20%) | 
CC1(C)C(=O)N(c2cnc(C#N)c(C(F)(F)F)c2)C(=S)N1[C@H]1CC[C@H](OCCC2CCN(CC(=O)Nc3ccc(C4CCC(=O)NC4=O)cc3)CC2(F)F)CC1 (stereo partly drawn) [Cmpd 44, 2-(4-(2-(((trans)-4-(3-(6-Cyano-5-(trifluoromethyl)pyridin-3-yl)-5,5-dimethyl-4-oxo-2-thioxoimidazolidin-1-yl)cyclohexyl)oxy)ethyl)-3,3-difluoropiperidin-1-yl)-N-(4-(2,6-dioxopiperidin-3-yl)phenyl)acetamide] | ≤ 5 nM |  | 12 % of DMSO control
